Experimental data from PMC7857480 (The Journal of Biological Chemistry, 2020).

Biological target: FigC (Francisella tularensis, UniProt Q15EG8)
Details: covalent (Schiff base with K63); active site at dimer interface

FigC, sequence (Q15EG8 1-417): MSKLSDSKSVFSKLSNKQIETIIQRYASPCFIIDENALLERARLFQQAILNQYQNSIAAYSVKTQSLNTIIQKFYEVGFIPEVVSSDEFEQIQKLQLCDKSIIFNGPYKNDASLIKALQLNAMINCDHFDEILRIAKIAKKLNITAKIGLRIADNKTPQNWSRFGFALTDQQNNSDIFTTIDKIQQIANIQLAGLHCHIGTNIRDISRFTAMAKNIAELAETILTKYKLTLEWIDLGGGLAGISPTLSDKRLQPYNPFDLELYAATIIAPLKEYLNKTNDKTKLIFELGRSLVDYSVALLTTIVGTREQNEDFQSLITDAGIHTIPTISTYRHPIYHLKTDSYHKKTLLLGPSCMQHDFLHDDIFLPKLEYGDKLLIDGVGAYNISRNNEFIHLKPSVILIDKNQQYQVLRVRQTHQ

SMILES: Cc1ncc(COP(=O)(O)O)c(C=O)c1O [PLP]
- X-ray crystal structure, 2.1 Å, SeMet SAD: all four active sites showed good density for the cofactor PLP
